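Cells were grown in 96-well plates and exposed to each compound for 48 hours at five concentrations; endpoints were interpolated linearly between bracketing concentrations, or set to the highest concentration if not reached. TGI: total growth inhibition.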
Legend:
Assay in all cases: DTP human tumour cell line panel, 48 h
786-0 renal = system: 786-0 renal
A498 renal = system: A498 renal
A549 NSCLC = system: A549 NSCLC
ACHN renal = system: ACHN renal
BT-549 breast = system: BT-549 breast
CAKI-1 renal = system: CAKI-1 renal
CCRF-CEM leukemia = system: CCRF-CEM leukemia
COLO 205 colon = system: COLO 205 colon
DU-145 prostate = system: DU-145 prostate
EKVX NSCLC = system: EKVX NSCLC
HCC-2998 colon = system: HCC-2998 colon
HCT-116 colon = system: HCT-116 colon
HCT-15 colon = system: HCT-15 colon
HL-60(TB) leukemia = system: HL-60(TB) leukemia
HOP-62 NSCLC = system: HOP-62 NSCLC
HOP-92 NSCLC = system: HOP-92 NSCLC
HS 578T breast = system: HS 578T breast
HT29 colon = system: HT29 colon
IGROV1 ovarian = system: IGROV1 ovarian
K-562 leukemia = system: K-562 leukemia
KM12 colon = system: KM12 colon
LOX IMVI melanoma = system: LOX IMVI melanoma
M14 melanoma = system: M14 melanoma
MALME-3M melanoma = system: MALME-3M melanoma
MCF7 breast = system: MCF7 breast
MDA-MB-231 breast = system: MDA-MB-231 breast
MDA-MB-435 = system: MDA-MB-435
MDA-N = system: MDA-N
MOLT-4 leukemia = system: MOLT-4 leukemia
NCI-H226 lung = system: NCI-H226 lung
NCI-H23 lung = system: NCI-H23 lung
NCI-H460 lung = system: NCI-H460 lung
NCI-H522 lung = system: NCI-H522 lung
NCI/ADR-RES ovarian = system: NCI/ADR-RES ovarian
OVCAR-3 ovarian = system: OVCAR-3 ovarian
OVCAR-4 ovarian = system: OVCAR-4 ovarian
OVCAR-5 ovarian = system: OVCAR-5 ovarian
OVCAR-8 ovarian = system: OVCAR-8 ovarian
PC-3 prostate = system: PC-3 prostate
RPMI-8226 leukemia = system: RPMI-8226 leukemia
RXF 393 renal = system: RXF 393 renal
SF-268 CNS = system: SF-268 CNS
SF-295 CNS = system: SF-295 CNS
SF-539 CNS = system: SF-539 CNS
SK-MEL-2 melanoma = system: SK-MEL-2 melanoma
SK-MEL-28 melanoma = system: SK-MEL-28 melanoma
SK-MEL-5 melanoma = system: SK-MEL-5 melanoma
SK-OV-3 ovarian = system: SK-OV-3 ovarian
SN12C renal = system: SN12C renal
SNB-19 CNS = system: SNB-19 CNS
SNB-75 CNS = system: SNB-75 CNS
SR leukemia = system: SR leukemia
SW-620 colon = system: SW-620 colon
T-47D breast = system: T-47D breast
TK-10 renal = system: TK-10 renal
U251 CNS = system: U251 CNS
UACC-257 melanoma = system: UACC-257 melanoma
UACC-62 melanoma = system: UACC-62 melanoma
UO-31 renal = system: UO-31 renal

Nc1nc(SCc2ccccc2)c2ncn(Cc3ccccc3)c2n1 showed a TGI (786-0 renal) greater than 100 µM, a TGI (A498 renal) greater than 65.9 µM and a TGI (A549 NSCLC) greater than 100 µM. For the same compound, the TGI (ACHN renal) was greater than 100 µM, the TGI (BT-549 breast) was greater than 100 µM and the TGI (CAKI-1 renal) was greater than 86.5 µM. The TGI (CCRF-CEM leukemia) was greater than 100 µM, the TGI (COLO 205 colon) was greater than 100 µM and the TGI (DU-145 prostate) was greater than 100 µM. The TGI (EKVX NSCLC) was greater than 100 µM, the TGI (HCC-2998 colon) was greater than 100 µM and the TGI (HCT-116 colon) was greater than 100 µM. It also gave a TGI (HCT-15 colon) greater than 100 µM, a TGI (HL-60(TB) leukemia) greater than 100 µM and a TGI (HOP-62 NSCLC) greater than 100 µM. It also gave a TGI (HOP-92 NSCLC) greater than 100 µM, a TGI (HS 578T breast) greater than 100 µM and a TGI (HT29 colon) greater than 100 µM. It also gave a TGI (IGROV1 ovarian) greater than 100 µM, a TGI (K-562 leukemia) greater than 100 µM and a TGI (KM12 colon) greater than 100 µM. It also gave a TGI (LOX IMVI melanoma) greater than 100 µM, a TGI (M14 melanoma) greater than 100 µM and a TGI (MALME-3M melanoma) greater than 89.1 µM. The TGI (MCF7 breast) was greater than 100 µM, the TGI (MDA-MB-231 breast) was greater than 100 µM and the TGI (MDA-MB-435) was greater than 100 µM. The TGI (MDA-N) was greater than 100 µM, the TGI (MOLT-4 leukemia) was greater than 100 µM and the TGI (NCI-H226 lung) was greater than 100 µM. It also gave a TGI (NCI-H23 lung) greater than 100 µM, a TGI (NCI-H460 lung) greater than 100 µM and a TGI (NCI-H522 lung) greater than 100 µM. It also gave a TGI (NCI/ADR-RES ovarian) greater than 100 µM, a TGI (OVCAR-3 ovarian) greater than 100 µM and a TGI (OVCAR-4 ovarian) greater than 100 µM. The TGI (OVCAR-5 ovarian) was greater than 100 µM, the TGI (OVCAR-8 ovarian) was greater than 100 µM and the TGI (PC-3 prostate) was greater than 100 µM. For the same compound, the TGI (RPMI-8226 leukemia) was greater than 100 µM, the TGI (RXF 393 renal) was greater than 100 µM and the TGI (SF-268 CNS) was greater than 100 µM. For the same compound, the TGI (SF-295 CNS) was greater than 100 µM, the TGI (SF-539 CNS) was greater than 100 µM and the TGI (SK-MEL-2 melanoma) was greater than 100 µM. For the same compound, the TGI (SK-MEL-28 melanoma) was greater than 100 µM, the TGI (SK-MEL-5 melanoma) was greater than 100 µM and the TGI (SK-OV-3 ovarian) was greater than 100 µM. The TGI (SN12C renal) was greater than 100 µM, the TGI (SNB-19 CNS) was greater than 100 µM and the TGI (SNB-75 CNS) was greater than 100 µM. For the same compound, the TGI (SR leukemia) was greater than 100 µM, the TGI (SW-620 colon) was greater than 100 µM and the TGI (T-47D breast) was greater than 100 µM. For the same compound, the TGI (TK-10 renal) was greater than 100 µM, the TGI (U251 CNS) was greater than 100 µM and the TGI (UACC-257 melanoma) was greater than 100 µM. It also gave a TGI (UACC-62 melanoma) greater than 100 µM and a TGI (UO-31 renal) greater than 100 µM.

With c1ccc(CCN(Cc2nc3ccccc3[nH]2)Cc2nc3ccccc3[nH]2)cc1 the TGI (786-0 renal) was 31.7 µM, the TGI (A498 renal) was 30.6 µM and the TGI (A549 NSCLC) was 44.8 µM. It also gave a TGI (ACHN renal) of 22.4 µM, a TGI (BT-549 breast) of 27.2 µM and a TGI (CAKI-1 renal) of 12.5 µM. It also gave a TGI (CCRF-CEM leukemia) greater than 100 µM, a TGI (COLO 205 colon) of 31.2 µM and a TGI (DU-145 prostate) of 31.7 µM. It also gave a TGI (EKVX NSCLC) greater than 77.8 µM, a TGI (HCC-2998 colon) of 33.6 µM and a TGI (HCT-116 colon) of 17 µM. The TGI (HCT-15 colon) was 22.1 µM, the TGI (HL-60(TB) leukemia) was 7.8 µM and the TGI (HOP-62 NSCLC) was 24.9 µM. The TGI (HOP-92 NSCLC) was 30.7 µM, the TGI (HS 578T breast) was 43.4 µM and the TGI (HT29 colon) was greater than 63.5 µM. It also gave a TGI (IGROV1 ovarian) of 17.8 µM, a TGI (K-562 leukemia) of 12.9 µM and a TGI (KM12 colon) of 27.3 µM. It also gave a TGI (LOX IMVI melanoma) of 23.1 µM, a TGI (M14 melanoma) of 26.7 µM and a TGI (MALME-3M melanoma) of 45.7 µM. It also gave a TGI (MCF7 breast) of 35.1 µM, a TGI (MDA-MB-231 breast) of 31.8 µM and a TGI (MDA-MB-435) of 29.8 µM. The TGI (MDA-N) was 36.3 µM, the TGI (MOLT-4 leukemia) was 39.3 µM and the TGI (NCI-H226 lung) was greater than 68.5 µM. For the same compound, the TGI (NCI-H23 lung) was 37.9 µM, the TGI (NCI-H460 lung) was 28.3 µM and the TGI (NCI-H522 lung) was 49.4 µM. It also gave a TGI (NCI/ADR-RES ovarian) of 18.1 µM, a TGI (OVCAR-3 ovarian) of 48.5 µM and a TGI (OVCAR-4 ovarian) of 68.9 µM. For the same compound, the TGI (OVCAR-5 ovarian) was 71.6 µM, the TGI (OVCAR-8 ovarian) was 18.6 µM and the TGI (PC-3 prostate) was 36.7 µM. For the same compound, the TGI (RPMI-8226 leukemia) was 11.6 µM, the TGI (RXF 393 renal) was 28.9 µM and the TGI (SF-268 CNS) was 33.6 µM. For the same compound, the TGI (SF-295 CNS) was 35.4 µM, the TGI (SF-539 CNS) was 38.9 µM and the TGI (SK-MEL-2 melanoma) was 36.6 µM. It also gave a TGI (SK-MEL-28 melanoma) of 30.4 µM, a TGI (SK-MEL-5 melanoma) of 16.3 µM and a TGI (SK-OV-3 ovarian) of 70 µM. The TGI (SN12C renal) was 30.8 µM, the TGI (SNB-19 CNS) was greater than 31.6 µM and the TGI (SNB-75 CNS) was 36.7 µM. The TGI (SR leukemia) was 35.3 µM, the TGI (SW-620 colon) was 26 µM and the TGI (T-47D breast) was 40.8 µM. The TGI (TK-10 renal) was 35.7 µM, the TGI (U251 CNS) was 19.8 µM and the TGI (UACC-257 melanoma) was 32.5 µM. It also gave a TGI (UACC-62 melanoma) of 28.3 µM and a TGI (UO-31 renal) of 26.2 µM.

— PubChem BioAssay (NCI)
